Cc1ccc(S(=O)(=O)NC(=O)NN2CC3CCCC3C2)cc1 (stereo not drawn)
solubility (mole fraction)
Conditions | 278.15 K | 283.15 K | 288.15 K | 293.15 K | 298.15 K | 303.15 K | 308.15 K | 313.15 K | 318.15 K
in DMF | 0.0571 | 0.0629 | 0.0684 | 0.0743 | 0.0801 | 0.0866 | 0.0935 | 0.101 | 0.109
in THF | 0.018 | 0.0217 | 0.0266 | 0.0318 | 0.0384 | 0.0462 | 0.0539 | 0.0635 | 0.076
in acetone | 0.00883 | 0.0103 | 0.0121 | 0.0141 | 0.0166 | 0.0191 | 0.0219 | 0.0252 | 0.0291
in acetonitrile | 0.00172 | 0.00211 | 0.00262 | 0.00319 | 0.0039 | 0.00473 | 0.00557 | 0.00658 | 0.00796
in chloroform | 0.0581 | 0.0641 | 0.07 | 0.0773 | 0.0842 | 0.0919 | 0.1 | 0.109 | 0.119
in cyclohexanone | 0.0112 | 0.0133 | 0.0155 | 0.0181 | 0.0209 | 0.0243 | 0.0278 | 0.0322 | 0.0371
in ethanol | 0.000739 | 0.000911 | 0.00113 | 0.00137 | 0.00169 | 0.00203 | 0.00249 | 0.00296 | 0.00358
in ethyl acetate | 0.00146 | 0.00174 | 0.00212 | 0.00248 | 0.00294 | 0.00351 | 0.00411 | 0.00477 | 0.00558
in ethyl formate | 0.00188 | 0.00239 | 0.00297 | 0.00364 | 0.00453 | 0.00549 | 0.00673 | 0.0082 | 0.00976
in isobutanol | 0.00042 | 0.000544 | 0.000709 | 0.000916 | 0.00114 | 0.00146 | 0.0018 | 0.00226 | 0.00286
in isopropanol | 0.000332 | 0.000439 | 0.000579 | 0.000738 | 0.000945 | 0.0012 | 0.00151 | 0.00192 | 0.00241
in methanol | 0.00122 | 0.00149 | 0.00178 | 0.00216 | 0.00257 | 0.00304 | 0.00358 | 0.00428 | 0.00497
in methyl acetate | 0.00229 | 0.00283 | 0.00339 | 0.00418 | 0.00499 | 0.00588 | 0.00699 | 0.00838 | 0.00982
in n-butanol | 0.000624 | 0.000787 | 0.000984 | 0.00123 | 0.00152 | 0.00192 | 0.0023 | 0.00286 | 0.00344
in n-propanol | 0.000655 | 0.000831 | 0.00103 | 0.00129 | 0.00162 | 0.00199 | 0.00238 | 0.00291 | 0.0035
in sec-butanol | 0.000505 | 0.000643 | 0.000834 | 0.00106 | 0.00133 | 0.00166 | 0.00205 | 0.00258 | 0.00322
in toluene | 0.000307 | 0.000395 | 0.000499 | 0.000634 | 0.000789 | 0.000979 | 0.00119 | 0.0015 | 0.00181
